Test results published in US8551942B2, “Lyophilized anti-fungal compositions” (Merck Sharp & Dohme Corp., priority 2007, dated 2013).

Test: Glass transition temperature by differential scanning calorimetry (DSC)
Assay type: physicochemical
Conditions: trehalose lyophilized in the same manner as the composition; average of samples
Method: The glass transition temperatures referred to herein (e.g., Tg(s) and Tg(c)) are the transition temperatures determined using differential scanning calorimetry (DSC). DSC measures the change in heat capacity between the glassy and rubbery states and is typically indicated by a change in baseline in a DSC thermogram.
The Tg(c) of the lyophilized composition was determined using a DSC Q2000 (TA Instruments) under a stream of nitrogen gas at 50 mL/minute as the purge gas. Several samples of the lyophilized composition (each about 5 mg) were prepared in a nitrogen purged glove box, and each was loaded into an aluminum DSC pan and hermetically sealed. The pans along with an empty pan as control were run in the DSC. The pans were first equilibrated at 25° C., then modulated at ±0.5° C. every 60 seconds, and then the temperature was raised at a rate of 2.5° C. per minute to a final temperature of 140° C. The samples was determined to have a Tg(c) of 97±2° C.
Several samples of trehalose were lyophilized in the same manner as set forth above for the caspofungin diacetate composition. The glass transition temperature Tg(s) of each of the lyophilized trehalose samples was determined using the instrument and procedure employed to determine Tg(c) described in the preceding paragraph. The average Tg(s) of the samples was 118±2° C.

## OC[C@H]1O[C@H](O[C@H]2O[C@H](CO)[C@@H](O)[C@H](O)[C@H]2O)[C@H](O)[C@@H](O)[C@@H]1O [trehalose]
  Tg(s): 118±2 °C
